In ChEMBL document CHEMBL2203061, “O-Aryl α,β-d-ribofuranosides: synthesis & highly efficient biocatalytic separation of anomers and evaluation of their Src kinase inhibitory activity” (Bioorg Med Chem, 2012):
Calls of active or inactive are those of the source. The calls are words filed in the database; no cut-off is given here.

Key:
[1] = target: T1, Proto-oncogene tyrosine-protein kinase Src (Homo sapiens, UniProt P12931); experiment: Inhibition of GST-tagged c-Src preincubated for 5 mins measured after 30 mins
T1 sequence (P12931 2-536 limits assumed): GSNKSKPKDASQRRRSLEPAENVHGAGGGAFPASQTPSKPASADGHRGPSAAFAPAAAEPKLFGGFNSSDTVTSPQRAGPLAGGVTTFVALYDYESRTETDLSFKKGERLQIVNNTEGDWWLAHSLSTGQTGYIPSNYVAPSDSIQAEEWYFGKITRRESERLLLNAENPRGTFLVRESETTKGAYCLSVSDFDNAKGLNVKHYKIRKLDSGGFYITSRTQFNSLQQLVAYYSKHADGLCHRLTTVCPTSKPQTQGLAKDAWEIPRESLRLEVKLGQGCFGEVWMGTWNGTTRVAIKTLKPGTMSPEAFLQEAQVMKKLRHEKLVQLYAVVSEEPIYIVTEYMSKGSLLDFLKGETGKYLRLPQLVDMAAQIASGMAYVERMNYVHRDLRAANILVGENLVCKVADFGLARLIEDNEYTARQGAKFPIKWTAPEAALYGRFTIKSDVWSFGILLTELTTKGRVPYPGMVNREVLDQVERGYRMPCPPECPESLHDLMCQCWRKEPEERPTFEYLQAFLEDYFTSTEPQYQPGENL

[2] = target: T1, Proto-oncogene tyrosine-protein kinase Src; experiment: Inhibition of GST-tagged c-Src up to 100 uM preincubated for 5 mins measured after 30 mins

Row | SMILES | IC50 [1] | inhibition [2]
1 | OC[C@H]1O[C@@H](Oc2ccc(O)cc2)[C@H](O)[C@@H]1O | 272 µM | 
2 | OC[C@H]1O[C@H](Oc2ccc(O)cc2)[C@H](O)[C@@H]1O |  | inactive
3 | OC[C@H]1O[C@H](Oc2ccc3ccccc3c2)[C@H](O)[C@@H]1O | 297 µM | 
4 | Cc1ccc(O[C@@H]2O[C@H](CO)[C@@H](O)[C@H]2O)cc1 | 143 µM | 
5 | OC[C@H]1O[C@@H](Oc2ccc(-c3ccccc3)cc2)[C@H](O)[C@@H]1O | 125 µM | 
6 | OC[C@H]1O[C@@H](Oc2cccc3ccccc23)[C@H](O)[C@@H]1O | 1370 µM | 
7 | OC[C@H]1O[C@H](Oc2cccc3ccccc23)[C@H](O)[C@@H]1O | 185 µM | 
8 | COc1cccc(O[C@H]2O[C@H](CO)[C@@H](O)[C@H]2O)c1 |  | inactive
9 | OC[C@H]1O[C@H](Oc2ccc(-c3ccccc3)cc2)[C@H](O)[C@@H]1O |  | inactive
10 | COc1ccc(O[C@H]2O[C@H](CO)[C@@H](O)[C@H]2O)cc1 |  | inactive

More lines, in order of falling IC50 [1], values ahead:

Row | IC50 [1] | inhibition [2] | SMILES
11 | 484 µM |  | COc1ccc(O[C@@H]2O[C@H](CO)[C@@H](O)[C@H]2O)cc1
12 | 451 µM |  | Cc1cccc(O[C@H]2O[C@H](CO)[C@@H](O)[C@H]2O)c1
13 | 225 µM |  | OC[C@H]1O[C@@H](Oc2ccc3ccccc3c2)[C@H](O)[C@@H]1O
14 | 95 µM |  | COc1cccc(O[C@@H]2O[C@H](CO)[C@@H](O)[C@H]2O)c1
